From EP0104611A2, “Thiatriazine derivatives” (HOECHST UK LIMITED, priority 1982, dated 1984)

Test system: perfused rat stomach
Assay: antisecretory activity in the perfused rat stomach (inhibition of histamine- or pentagastrin-stimulated acid secretion)
Type: in vivo
Conditions: iv, amount required to inhibit the histamine- or pentagastrin-stimulated secretion by 50 %, two to four rats per determination, read-out: ID50 (μmoles/kg) Rat perfused stomach i.v.
Method: Compounds of this invention were tested for […]- tory activity in the perfused rat stomach. The method of Gosh and Schild, Brit. […] After the secretion plateau was reached, the test compound was administered i.v. and the amount of comound required to inhibit the stimulated secretion by 50 % was determined. Two to four rats were used for each determination. [drawing 17]

SMILES | ED50
CC(C)NC1=NS(=O)(=O)N=C(NCCSCc2csc(N=C(N)N)n2)N1C [-NH-CH(CH3)2] | 0.28 µmol/kg
CN1C(N)=NS(=O)(=O)N=C1NCCSCc1csc(N=C(N)N)n1 [-NH2, 3-N-[2-[(2-Guanidino-4-thiazolyl)methylthio]-ethyl]-amino-4-methyl-5-amino-1,2,4,6-thiatriazine-1,1-dioxide] | 0.15 µmol/kg
CN/C(=N/CCSCc1nc[nH]c1C)NC#N [Cimetidine, reference compound] | 10.8 µmol/kg
C#CCNC1=NS(=O)(=O)N=C(NCCSCc2csc(N=C(N)N)n2)N1C [-NHCH2C≡CH] | 0.12 µmol/kg
CN1C(NC#N)=NS(=O)(=O)N=C1NCCSCc1csc(N=C(N)N)n1 [-NHCN] | 0.34 µmol/kg
CN(C)C1=NS(=O)(=O)N=C(NCCSCc2csc(N=C(N)N)n2)N1C [-N(CH3)2] | 0.095 µmol/kg
